Data reported in paper PMC7618597, “Dual Nurr1/RXR agonism of valerenic acid and synthetic mimetics enables dimer-selective Nurr1 modulation” (ACS medicinal chemistry letters, 2025).

Assays:
Nurr1 LBD = molecular target: T1, Nurr1 LBD (Homo sapiens, UniProt P43354); experiment: Isothermal titration calorimetry, recombinant Nurr1 LBD; type: binding; settings: ITC
T1 construct: made in house
Method: Isothermal titration calorimetry. ITC experiments for ligand binding to Nurr1 and RXR were conducted on an Affinity ITC instrument (TA Instruments, New Castle, DE) at 25 °C with a stirring rate of 75 rpm using recombinantly expressed ligand binding domain proteins as described previously5,6. The respective LBD protein (12–25 μM) in buffer (20 mM Tris pH 7.5, 100 mM NaCl, 5% glycerol) containing 2-4% DMSO was titrated with the test compounds (100-150 μM in the same buffer containing 2-4% DMSO) in 21–26 injections (1 × 1 μL and 20 × 4 to 25 × 4 μL) with an injection interval of 120 s. As control experiments, the test compounds were titrated to the buffer, and the buffer was titrated to the protein under otherwise identical conditions. The heat rates of the compound-Nurr1 LBD titrations were analyzed using NanoAnalyze software (TA Instruments, New Castle, DE) with an independent binding model.

[1] = tested on: rat dopaminergic neuronal cells (N27); experiment: Nurr1-regulated gene expression (qPCR) in N27 cells; type: cell-based
Method: Nurr1 is a key factor of neuroprotection and health of dopaminergic neurons. Therefore, we explored the impact of 2 (10 μM) and 3 (1 μM) on gene expression in rat dopaminergic neuronal cells (N27), which have been widely used to study Nurr1 agonists[17],[18],[38],[39]. Both compounds were non-toxic at the test concentrations in a multiplex toxicity assay (Figure S5). […] Modulation of Nurr1 LBD homodimerization and heterodimerization of the LDBs of Nurr1 and RXRα was investigated by HTRF as reported previously4. Nurr1 LBD or RXRα LBD proteins labeled with sGFP were titrated against a fixed concentration of Tb3+-cryptate as streptavidin conjugate ([…], Revvity) coupled to biotinylated Nurr1 LBD protein in the presence of test compounds at 30 μM or absence of compound as a negative control (apo). Assay solutions were prepared in buffer containing 25 mM HEPES pH 7.5, 150 mM KF, 5% (m/v) glycerol, 5 mM DTT, 0.1% (m/v) CHAPS and 1% DMSO. The FRET donor complex was formed from biotinylated Nurr1 LBD (final concentration 0.188 nM) and Tb-SA (0.375 nM) and was kept constant. For the homodimerization assay, the FRET acceptor consisted of sGFP-Nurr1 LBD, which was titrated from 0.5 μM, while free sGFP was added to keep the total GFP content stable at 0.5 μM. For the heterodimerization assay, the FRET acceptor sGFP-RXRα LBD was titrated from 6 μM, while free sGFP was added to keep a constant concentration of GFP at 6 μM. Samples were equilibrated at room temperature for 2 h and fluorescence intensities (FI) after excitation at 340 nm were recorded at 520 nm for sGFP acceptor fluorescence and at 620 for Tb-SA donor fluorescence on a SPARK plate reader (Tecan Group Ltd.). FI520 was divided by FI620 and multiplied by 10,000 to give a dimensionless HTRF signal. For dose-response curve fitting, the equation “[Agonist] versus response-variable slope (four parameters)” was used in GraphPad Prism ( version 9.5.1, GraphPad Software, La Jolla, CA). Evaluation of Nurr1-regulated gene expression. N27 rat dopaminergic neural cells (SCC048, Sigma-Aldrich, Darmstadt, Germany) were cultured in RPMI 1640 medium (Gibco, Thermo Fisher Scientific, Waltham, MA, USA) supplemented with 10% FCS, penicillin (100 U/mL), and streptomycin (100 μg/mL) at 37 °C and 5% and seeded in 12-well plates (3×10^5 cells/well). […] RNA concentration and purity were assessed using a NanoDrop One UV-vis spectrophotometer (Thermo Fisher Scientific) at 260/280 nm. […]

T1 sequence (P43354 360-595 limits assumed): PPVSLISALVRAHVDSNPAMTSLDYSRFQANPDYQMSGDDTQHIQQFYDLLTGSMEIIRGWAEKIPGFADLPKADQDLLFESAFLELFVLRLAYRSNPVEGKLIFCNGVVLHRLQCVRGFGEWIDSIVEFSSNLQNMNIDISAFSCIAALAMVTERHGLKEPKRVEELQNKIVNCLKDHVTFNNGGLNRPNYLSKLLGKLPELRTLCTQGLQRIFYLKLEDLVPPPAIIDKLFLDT

| SMILES | Kd (Nurr1 LBD) [µM] | mRNA expression of TH, FLRT2, BDNF, CRMP4 ([1]; 10 μM) | mRNA expression of XIAP, SESN3, CCND2, BIRC5, SOD2 ([1]; 10 μM) | mRNA expression of TH, FLRT2, BDNF, CRMP4 ([1]; 1 μM) | mRNA expression of XIAP, SESN3, CCND2, BIRC5, SOD2 ([1]; 1 μM) |
| --- | --- | --- | --- | --- | --- |
| Cc1c2c(n(-c3ccc(CC(=O)O)cc3)c1C)CCC(F)(F)C2 [compound 2] | 0.6 | robustly upregulated | not induced | – | – |
| Cc1c(C)n(-c2ccc(CC(=O)O)cc2)c2ccc(F)cc12 [compound 3] | 0.6 | – | – | robustly upregulated | not induced |
